Test results published in article PMC13503962, “Uncovering the genetic basis of fruit volatiles in Fragaria vesca through GWAS reveals FvJMT2 as a methyl benzoate biosynthesis gene with bioactivity against Drosophila suzukii” (Horticulture Research, 2026).

Tested on: T1, FvJMT2 (FvJMT2^C275, functional full-length allele)
T1 construct: full-length CDS (1173 nt, 390 residues) in pQE80L, N-terminal 6xHis tag, E. coli XL1-Blue, Ni-NTA purified; tag removal not mentioned
Test: radiochemical methyl transfer from […]-SAM, hexane extraction, scintillation counting; nonlinear Michaelis-Menten fit
Format: biochemical, Fragaria vesca
Settings: co-substrate SAM (saturating); 50 mM Tris-HCl pH 7.5, 2.5 mM MgCl2, 5 mM DTT, 2.5 mM EDTA, 30 °C; read-out: Kinetic parameters / Km /

Row | Km | Compound
1 | 597 µM | O=C(O)/C=C/c1ccccc1 [Cinnamic acid]
2 | 690 µM | O=C(O)c1ccccc1O [Salicylic acid]
3 | 174 µM | CC/C=C\C[C@H]1C(=O)CC[C@@H]1CC(=O)O [Jasmonic acid]
4 | 577 µM | O=C(O)c1ccccc1 [Benzoic acid]
